The values below come from patent US10173999B2, “Cyclic amine derivative and pharmaceutical use thereof” (Toray Industries, Inc., priority 2015, dated 2019).

“Also recorded” adds a separate entry of the source. Where a name gives a salt, the structure may show the parent alone.

The subject of this assay is fibromyalgia syndrome model rats. The assay can be described thus: Rat fibromyalgia syndrome model (acidic saline), allodynia by von Frey filament. The assay is classed as in vivo. The conditions noted are these: for allodynia (50% response threshold) vs acidic saline+distilled water group: Day 7, pregabalin 10 mg/kg. Here is the method:
To prepare a fibromyalgia syndrome model rat (Sluka et al., Journal of Pharmacology and Experimental Therapeutics, vol. 302, p. 1146-1150, 2002; Nagakura et al., Pain, vol. 146, p. 26-33, 2009; Sluka et al., Pain, vol. 146, p. 3-4, 2009), which is generally employed widely in basic research for fibromyalgia syndrome, acidic saline (100 μL) adjusted to pH 4.0 was intramuscularly injected to the gastrocnemius muscle of the right hind paw of Crl: CD(SD) rat (6 to 7 weeks old, male; from CHARLES RIVER LABORATORIES JAPAN, INC.) under continuous inhalation anesthesia with isoflurane, twice (once in each day of Day 1 and Day 6, wherein Day 1 was the date on which the acidic saline was initially administrated). The rats thus prepared were raised in a breeding room controlled at an indoor temperature of 21 to 25° C. and an indoor humidity of 40 to 70% under the conditions of voluntary intake of food and water. In the same manner, rats to which physiological saline in place of acidic saline was intramuscularly injected were raised. The rats thus raised and not afflicted with fibromyalgia syndrome (“physiological saline+distilled water” group in FIG. 13) were also used in the experiment.
Seven days after the initial administration of acidic saline, allodynia in each rat was measured. […] Note that, measurement of allodynia was performed by use of a von Frey filament (from North Coast Medical) in accordance with the method described in a known literature (Chaplan et al., Journal of Neuroscience Methods, vol. 53, p. 55-63, 1994).
The fibromyalgia syndrome model rats thus obtained are divided into groups such that the 50% response threshold (mean value of the right hind paw and the left hind paw) of the individual groups became equal, and a test compound was administered to the fibromyalgia syndrome model rats on Day 7 after the initial administration of acidic saline.
The compound of Example 11 (0.1 to 10 mg/kg) was dissolved in distilled water and then orally administered to fibromyalgia syndrome model rats (“acidic saline+the compound of Example 11” in FIG. 13). Pregabalin serving as a positive control (10 mg/kg; from KEMPROTEC) was dissolved in distilled water and then orally administered (“acidic saline+pregabalin” in FIG. 13). As a control, distilled water was orally administered to fibromyalgia syndrome model rats (“acidic saline+distilled water” in FIG. 13). Furthermore, distilled water was orally administered to rats not afflicted with fibromyalgia syndrome (“physiological saline+distilled water” in FIG. 13). One hour and three hours after the oral administration, allodynia in individual rats was measured to evaluate an analgesic action. At this time, the 50% response threshold value in the measurement of allodynia before oral administration of the test compound on Day 7 after initial administration of acidic saline was defined as the pre-value.
To prepare a fibromyalgia syndrome model rat (Sluka et al., Journal of Pharmacology and Experimental Therapeutics, vol. 302, p. 1146-50, 2002; Nagakura et al., Pain, vol. 146, p. 26-33, 2009; Sluka et al., Pain, vol. 146, p. 3-4, 2009), which is generally employed widely in basic research for fibromyalgia syndrome, acidic saline (100 μL) adjusted to pH 4.0 was intramuscularly injected to the gastrocnemius muscle of the right hind paw of Slc: (SD) rats (6 to 7 weeks old, male; from Japan SLC, Inc.) under continuous inhalation anesthesia with isoflurane, twice (once in each of Day 1 and Day 6, wherein Day 1 was the initial administration date of the acidic saline). The rats thus prepared were raised in a breeding room controlled at an indoor temperature of 21 to 25° C. and an indoor humidity of 40 to 70% under the conditions of voluntary intake of food and water. In the same manner, rats to which physiological saline was intramuscularly injected in place of acidic saline were raised. […]

Regarding `CN(C)C1CCN(C(=O)CCc2nccn2C)CC1` [Comparative Example 1, 1-(4-(dimethylamino)piperidin-1-yl)-3-(1-methyl-1H-imidazol-2-yl)propan-1-one hydrochloride], the “allodynia (50% response threshold) vs acidic saline+distilled water group” value (Comparative Example 8: oral, Comparative Example 1 0.1 to 1 mg/kg, 1, 2 and 3 h after dosing, hydrochloride) is “statistically significantly improved; also recorded: statistically significant analgesic action”. For the same molecule, the “persistence of analgesic action” value (oral administration) was “tended to significantly decrease 3 hours after oral administration”.

Turning to `CN(C)C1CCN(C(=O)C[C@H](O)c2nccn2C)CC1` [Example 11, (S)-1-(4-(dimethylamino)piperidin-1-yl)-3-hydroxy-3-(1-methyl-1H-imidazol-2-yl)propan-1-one], the “allodynia (50% response threshold) vs acidic saline+distilled water group” value (Example 15: oral, Example 11 0.1 to 10 mg/kg, 1 and 3 h after dosing) is reported as “statistically significantly improved; also recorded: statistically significant analgesic action”. In addition, the “time the analgesic action lasted after oral administration” value (oral administration) turned out to be 3 h.
